Measured values as given in US20160113921A1, “COMBINATION THERAPY COMPRISING OXAZOLIDINONE-QUINOLONES FOR USE IN TREATING BACTERIAL INFECTIONS” (MORPHOCHEM AKTIENGESELLSCHAFT FÜR KOMBINATORISCHE CHEMIE, priority 2013, published 2016).
Values after ≈ are worked out from the molar mass of the structure shown.

Legend:
Format in all cases: cell-based
[1] = tested on: Gram-positive strains tested; assay: MIC testing, statements on the Gram-positive strain panel; settings: read-out: MIC (inhibitory concentration)
Text: (§1) MIC-testing was done immediately after preparation of the dilutions. All tests were done in duplicate and repeated once on a separate occasion.

[2] = tested on: Gram-negative test strains (Enterobacteriaceae, non-fermenters); assay: MIC testing, statements on the Gram-negative strain panel
Text: as §1

[3] = tested on: S. aureus DSM 11823, clone 16 (MSSA, quinolone-resistant); assay: microbe, parasite or virus in culture; settings: Staphylococcus aureus
Method: as §1
(§2) 1 mL of the bacterial suspension was transferred into a tube containing 10 mL CAMHB and was vortexed thoroughly. (S. pneumoniae 1 mL in 10 mL CAMHB+5% lysed horse blood). Columns 1-15 of the 96-well plate were inoculated with 5 μL of this suspension (1-15=antibacterial solution, 16=sterile medium without test item).
(§3) Turbidity was read visually with a mirror.

[4] = tested on: S. aureus NRS-119 (MRSA, linezolid- and quinolone-resistant); assay: MIC, broth microdilution (CLSI), CAMHB; settings: Staphylococcus aureus
Method: as §1, §2, §3

[5] = tested on: K. pneumoniae NRZ-00002 (OXA-48); assay: MIC, broth microdilution (CLSI), CAMHB; settings: Klebsiella pneumoniae
Method: as §1, §2, §3

[6] = tested on: E. cloacae NRZ-00239 (VIM-1); assay: MIC, broth microdilution (CLSI), CAMHB; settings: Enterobacter cloacae
Method: as §1, §2, §3

[7] = tested on: E. coli GNS-2601 (ESBL CTX-M-15); assay: MIC, broth microdilution (CLSI), CAMHB; settings: Escherichia coli
Method: as §1, §2, §3

S. aureus ATCC 29213 = assay: MIC, broth microdilution (CLSI), CAMHB; settings: Staphylococcus aureus, ATCC29213
Method: as §1, §2, §3

[8] = tested on: E. coli NRZ-00302 (metallo β-lactamase NDM-1); assay: MIC, broth microdilution (CLSI), CAMHB; settings: Escherichia coli
Method: as §1, §2, §3

E. coli ATCC 25922 = assay: MIC, broth microdilution (CLSI), CAMHB; settings: Escherichia coli, ATCC25922
Method: as §1, §2, §3

[9] = tested on: S. aureus Visa Mu 50 (MRSA, vancomycin intermediate susceptible); assay: MIC, broth microdilution (CLSI), CAMHB; settings: Staphylococcus aureus
Method: as §1, §2, §3

E. faecalis ATCC 29212 = assay: MIC, broth microdilution (CLSI), CAMHB; settings: Enterococcus faecalis, ATCC29212
Method: as §1, §2, §3

E. cloacae ATCC 13047 = assay: MIC, broth microdilution (CLSI), CAMHB; settings: Enterobacter cloacae, ATCC13047
Method: as §1, §2, §3

[10] = tested on: P. mirabilis NRZ-00185 (AmpC, type CMY-2); assay: MIC, broth microdilution (CLSI), CAMHB; settings: Proteus mirabilis
Method: as §1, §2, §3

P. mirabilis ATCC 9240 = assay: MIC, broth microdilution (CLSI), CAMHB; settings: Proteus mirabilis, ATCC9240
Method: as §1, §2, §3

[11] = tested on: S. pneumoniae BAY 19397 (penicillin-, macrolide-, quinolone-resistant); assay: MIC, broth microdilution (CLSI), CAMHB; settings: Streptococcus pneumoniae
Method: as §1, §2, §3

S. pneumoniae ATCC 33400 = assay: MIC, broth microdilution (CLSI), CAMHB; settings: Streptococcus pneumoniae, ATCC33400
Method: as §1, §2, §3

E. faecium DSMZ 2146 = assay: MIC, broth microdilution (CLSI), CAMHB; settings: Enterococcus faecium, DSMZ2146
Method: as §1, §2, §3

P. aeruginosa ATCC 10145 = assay: MIC, broth microdilution (CLSI), CAMHB; settings: Pseudomonas aeruginosa, ATCC10145
Method: as §1, §2, §3

E. faecalis V583 (VanB) = assay: MIC, broth microdilution (CLSI), CAMHB; settings: Enterococcus faecalis
Method: as §1, §2, §3

K. pneumoniae ATCC 13883 = assay: MIC, broth microdilution (CLSI), CAMHB; settings: Klebsiella pneumoniae, ATCC13883
Method: as §1, §2, §3

[12] = tested on: P. aeruginosa NRZ-00425 (VIM-1); assay: MIC, broth microdilution (CLSI), CAMHB; settings: Pseudomonas aeruginosa
Method: as §1, §2, §3

[13] = tested on: E. faecium UW 3695 (linezolid and quinolone-resistant); assay: MIC, broth microdilution (CLSI), CAMHB; settings: Enterococcus faecium
Method: as §1, §2, §3

[14] = tested on: K. pneumoniae NRZ-00103 (KPC-2); assay: MIC, broth microdilution (CLSI), CAMHB; settings: Klebsiella pneumoniae
Method: as §1, §2, §3

[15] = tested on: E. coli NRZ-00401 (metallo β-lactamase VIM-1); assay: MIC, broth microdilution (CLSI), CAMHB; settings: Escherichia coli
Method: as §1, §2, §3

[16] = tested on: S. aureus ATCC 33593 (MRSA); assay: MIC, broth microdilution (CLSI), CAMHB; settings: Staphylococcus aureus
Method: as §1, §2, §3

[17] = tested on: K. pneumoniae NRZ-00535 (VIM-1); assay: MIC, broth microdilution (CLSI), CAMHB; settings: Klebsiella pneumoniae
Method: as §1, §2, §3

`CN(C)c1cc(NC(=O)CNC(C)(C)C)c(O)c2c1C[C@H]1C[C@H]3[C@H](N(C)C)C(O)=C(C(N)=O)C(=O)[C@@]3(O)C(O)=C1C2=O` [tigecycline] was tested, and the MIC [1] was under 0.5 µg/mL, the MIC [2] was over 2 µg/mL and the MIC [3] was 0.125 µg/mL (≈ 0.213 µM). The MIC [4] was 0.25 µg/mL (≈ 0.427 µM), the MIC [5] was 2 µg/mL (≈ 3.41 µM) and the MIC [6] was 2 µg/mL (≈ 3.41 µM). The MIC [7] was 4 µg/mL (≈ 6.83 µM), the MIC (S. aureus ATCC 29213) was 0.25 µg/mL (≈ 0.427 µM) and the MIC [8] was 2 µg/mL (≈ 3.41 µM). For the same compound, the MIC (E. coli ATCC 25922) was 0.5 µg/mL (≈ 0.854 µM), the MIC [9] was 0.5 µg/mL (≈ 0.854 µM) and the MIC (E. faecalis ATCC 29212) was 0.25 µg/mL (≈ 0.427 µM). It also gave an MIC (E. cloacae ATCC 13047) of 2 µg/mL (≈ 3.41 µM), an MIC [10] of 8 µg/mL (≈ 13.7 µM) and an MIC (P. mirabilis ATCC 9240) of 8 µg/mL (≈ 13.7 µM). The MIC [11] was 7.5 ng/mL (≈ 0.0128 µM), the MIC (S. pneumoniae ATCC 33400) was 7.5 ng/mL (≈ 0.0128 µM) and the MIC (E. faecium DSMZ 2146) was 0.25 µg/mL (≈ 0.427 µM). It also gave an MIC (P. aeruginosa ATCC 10145) of 16 µg/mL (≈ 27.3 µM), an MIC (E. faecalis V583 (VanB)) of 0.25 µg/mL (≈ 0.427 µM) and an MIC (K. pneumoniae ATCC 13883) of 2 µg/mL (≈ 3.41 µM). The MIC [12] was 32 µg/mL (≈ 54.6 µM), the MIC [13] was 0.25 µg/mL (≈ 0.427 µM) and the MIC [14] was 4 µg/mL (≈ 6.83 µM). The MIC [15] was 2 µg/mL (≈ 3.41 µM), the MIC [16] was 0.25 µg/mL (≈ 0.427 µM) and the MIC [17] was 2 µg/mL (≈ 3.41 µM).
